Patent US20200239530A1, “COMPOUNDS AND METHODS OF MODULATING PROTEIN DEGRADATION” (Vividion Therapeutics, Inc., priority 2017, published 2020)
Where two headings read alike, the source gives them in different places. Each block holds one compound with its values, some of them ahead of it.

Columns and labels:
Experiment in all cases: Cysteine liganding, probe competition
Type in all cases: binding
[1] = target: T1, UniProt Q96JY6 (Homo sapiens, UniProt Q96JY6)
T1 construct: 200 μL of lysate containing 5 mg/ml proteome was treated with 2 μL of 100× compound stock; endogenous in cells
T1 sequence (Q96JY6 1-352): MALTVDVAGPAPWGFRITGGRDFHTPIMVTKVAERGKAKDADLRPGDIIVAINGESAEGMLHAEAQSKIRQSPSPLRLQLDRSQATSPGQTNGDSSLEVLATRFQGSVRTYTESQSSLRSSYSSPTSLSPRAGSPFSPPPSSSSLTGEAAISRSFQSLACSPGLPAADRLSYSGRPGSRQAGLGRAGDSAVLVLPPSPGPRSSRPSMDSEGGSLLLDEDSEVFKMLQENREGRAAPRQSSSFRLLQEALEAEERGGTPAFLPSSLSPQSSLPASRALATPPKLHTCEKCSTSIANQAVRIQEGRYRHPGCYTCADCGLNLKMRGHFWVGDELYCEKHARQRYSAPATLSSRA
Text: (§1) The following 96-well sample prep protocol was used for sample preparation.

[2] = target: T2, UniProt O00623 (Homo sapiens, UniProt O00623)
T2 construct: 200 μL of lysate containing 5 mg/ml proteome was treated with 2 μL of 100× compound stock; endogenous in cells
T2 sequence (O00623 whole entry, change not shown): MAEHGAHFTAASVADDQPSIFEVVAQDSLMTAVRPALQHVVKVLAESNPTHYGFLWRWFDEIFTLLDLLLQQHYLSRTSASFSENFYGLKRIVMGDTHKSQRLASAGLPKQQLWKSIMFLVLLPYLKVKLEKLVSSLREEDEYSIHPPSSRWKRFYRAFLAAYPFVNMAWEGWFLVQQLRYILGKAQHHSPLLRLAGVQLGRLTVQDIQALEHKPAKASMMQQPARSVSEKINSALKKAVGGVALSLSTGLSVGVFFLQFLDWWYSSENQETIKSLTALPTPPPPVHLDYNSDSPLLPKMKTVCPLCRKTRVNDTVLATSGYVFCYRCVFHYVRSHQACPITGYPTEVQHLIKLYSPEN
Text: as §1

[3] = target: T3, UniProt Q9BVG3 (Homo sapiens, UniProt Q9BVG3)
T3 construct: 200 μL of lysate containing 5 mg/ml proteome was treated with 2 μL of 100× compound stock; endogenous in cells
T3 sequence (Q9BVG3 whole entry, change not shown): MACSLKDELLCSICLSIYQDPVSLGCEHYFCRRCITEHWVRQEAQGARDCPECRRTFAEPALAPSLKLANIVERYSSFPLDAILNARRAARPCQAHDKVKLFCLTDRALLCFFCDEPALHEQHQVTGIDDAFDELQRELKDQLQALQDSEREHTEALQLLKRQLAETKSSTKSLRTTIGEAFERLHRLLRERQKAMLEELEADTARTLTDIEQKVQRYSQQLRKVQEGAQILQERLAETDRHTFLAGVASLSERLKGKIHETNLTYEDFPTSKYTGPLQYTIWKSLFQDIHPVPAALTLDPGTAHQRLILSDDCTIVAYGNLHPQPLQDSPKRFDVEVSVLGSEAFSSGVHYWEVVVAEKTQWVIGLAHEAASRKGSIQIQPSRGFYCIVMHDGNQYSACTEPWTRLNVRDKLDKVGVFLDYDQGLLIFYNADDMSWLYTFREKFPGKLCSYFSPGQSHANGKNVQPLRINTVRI
Text: as §1

[4] = target: T4, UniProt Q86UD3 (Homo sapiens, UniProt Q86UD3)
T4 construct: Cells were resuspended in cold PBS on ice and sonicated with a probe sonicator to achieve lysis; endogenous in cells
T4 sequence (Q86UD3 1-253): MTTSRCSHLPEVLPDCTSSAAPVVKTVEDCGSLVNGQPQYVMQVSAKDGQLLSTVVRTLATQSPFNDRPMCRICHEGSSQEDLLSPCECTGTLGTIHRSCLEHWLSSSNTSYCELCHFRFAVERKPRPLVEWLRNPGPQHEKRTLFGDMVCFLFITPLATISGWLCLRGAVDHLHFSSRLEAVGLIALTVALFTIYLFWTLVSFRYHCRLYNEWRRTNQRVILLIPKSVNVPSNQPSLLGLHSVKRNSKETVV
Text: as §1

[5] = target: T5, UniProt Q13829 (Homo sapiens, UniProt Q13829)
T5 construct: 200 μL of lysate containing 5 mg/ml proteome was treated with 2 μL of 100× compound stock; endogenous in cells
T5 sequence (Q13829 1-316): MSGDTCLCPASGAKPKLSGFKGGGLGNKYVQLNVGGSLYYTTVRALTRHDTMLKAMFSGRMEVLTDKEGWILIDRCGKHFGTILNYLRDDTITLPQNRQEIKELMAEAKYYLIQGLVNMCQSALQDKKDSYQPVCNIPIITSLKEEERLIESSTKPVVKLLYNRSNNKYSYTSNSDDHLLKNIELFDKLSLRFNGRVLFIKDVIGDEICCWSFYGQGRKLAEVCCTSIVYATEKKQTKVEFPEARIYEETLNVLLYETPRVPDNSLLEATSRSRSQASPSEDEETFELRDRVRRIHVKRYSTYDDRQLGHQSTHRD
Text: as §1

[6] = target: T6, UniProt Q9HCE7 (Homo sapiens, UniProt Q9HCE7)
T6 construct: 200 μL of lysate containing 5 mg/ml proteome was treated with 2 μL of 100× compound stock; endogenous in cells
T6 sequence (Q9HCE7 whole entry, change not shown): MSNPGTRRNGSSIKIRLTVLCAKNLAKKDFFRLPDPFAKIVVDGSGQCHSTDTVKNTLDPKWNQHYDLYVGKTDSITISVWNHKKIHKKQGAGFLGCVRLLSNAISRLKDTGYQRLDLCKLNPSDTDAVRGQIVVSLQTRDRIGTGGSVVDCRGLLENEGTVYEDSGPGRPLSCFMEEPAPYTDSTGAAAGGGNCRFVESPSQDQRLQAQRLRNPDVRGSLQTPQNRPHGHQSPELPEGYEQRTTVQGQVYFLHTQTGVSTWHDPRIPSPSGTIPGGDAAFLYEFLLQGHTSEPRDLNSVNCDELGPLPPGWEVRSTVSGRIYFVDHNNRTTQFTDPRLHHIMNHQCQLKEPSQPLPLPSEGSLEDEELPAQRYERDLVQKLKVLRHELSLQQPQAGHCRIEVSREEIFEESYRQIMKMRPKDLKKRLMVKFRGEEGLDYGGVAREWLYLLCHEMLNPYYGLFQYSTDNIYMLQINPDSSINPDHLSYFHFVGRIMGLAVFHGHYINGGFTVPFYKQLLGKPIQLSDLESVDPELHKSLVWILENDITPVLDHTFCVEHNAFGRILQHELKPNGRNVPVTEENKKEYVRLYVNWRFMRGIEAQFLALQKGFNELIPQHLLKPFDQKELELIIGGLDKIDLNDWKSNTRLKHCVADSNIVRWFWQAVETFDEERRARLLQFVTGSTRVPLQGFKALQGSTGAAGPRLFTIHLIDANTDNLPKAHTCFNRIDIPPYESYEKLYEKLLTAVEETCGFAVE
Text: as §1

[7] = target: T7, UniProt P46934 (Homo sapiens, UniProt P46934)
T7 construct: Cells were resuspended in cold PBS on ice and sonicated with a probe sonicator to achieve lysis; endogenous in cells
T7 sequence (P46934 1-1319): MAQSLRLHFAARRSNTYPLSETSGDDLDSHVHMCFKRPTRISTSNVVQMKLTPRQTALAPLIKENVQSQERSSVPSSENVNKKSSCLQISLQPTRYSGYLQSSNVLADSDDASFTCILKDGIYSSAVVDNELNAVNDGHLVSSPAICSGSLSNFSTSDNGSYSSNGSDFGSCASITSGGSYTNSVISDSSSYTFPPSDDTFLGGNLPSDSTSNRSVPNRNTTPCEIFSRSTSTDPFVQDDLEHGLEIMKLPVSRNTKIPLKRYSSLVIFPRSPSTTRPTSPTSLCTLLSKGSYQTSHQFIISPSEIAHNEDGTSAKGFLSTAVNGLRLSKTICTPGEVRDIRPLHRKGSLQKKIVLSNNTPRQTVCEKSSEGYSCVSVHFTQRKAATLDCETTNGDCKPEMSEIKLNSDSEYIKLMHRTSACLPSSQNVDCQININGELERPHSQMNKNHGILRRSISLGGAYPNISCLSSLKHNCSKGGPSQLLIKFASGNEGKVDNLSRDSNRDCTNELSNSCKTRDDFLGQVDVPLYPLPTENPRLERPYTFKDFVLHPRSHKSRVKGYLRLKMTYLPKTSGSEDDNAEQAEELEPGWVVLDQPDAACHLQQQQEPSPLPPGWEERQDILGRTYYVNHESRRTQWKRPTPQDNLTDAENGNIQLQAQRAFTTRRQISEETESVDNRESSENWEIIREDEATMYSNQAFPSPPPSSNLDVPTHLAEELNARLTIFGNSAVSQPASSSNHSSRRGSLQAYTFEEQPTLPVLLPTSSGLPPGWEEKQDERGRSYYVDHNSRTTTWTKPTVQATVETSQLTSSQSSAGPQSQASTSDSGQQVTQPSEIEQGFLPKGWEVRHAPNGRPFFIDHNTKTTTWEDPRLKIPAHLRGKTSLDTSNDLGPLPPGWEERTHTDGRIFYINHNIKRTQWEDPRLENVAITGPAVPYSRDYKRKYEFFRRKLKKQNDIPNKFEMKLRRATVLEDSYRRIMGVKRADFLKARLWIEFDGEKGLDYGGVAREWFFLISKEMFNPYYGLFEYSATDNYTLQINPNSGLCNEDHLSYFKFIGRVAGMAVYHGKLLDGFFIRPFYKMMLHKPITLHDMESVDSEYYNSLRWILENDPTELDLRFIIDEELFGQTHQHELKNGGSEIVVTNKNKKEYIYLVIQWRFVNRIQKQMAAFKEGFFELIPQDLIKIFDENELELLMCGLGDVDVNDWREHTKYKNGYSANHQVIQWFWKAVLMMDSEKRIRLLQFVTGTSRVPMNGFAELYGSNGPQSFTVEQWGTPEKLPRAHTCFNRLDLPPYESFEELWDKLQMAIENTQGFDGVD
Text: as §1

[8] = target: T8, UniProt Q12899 (Homo sapiens, UniProt Q12899)
T8 construct: 200 μL of lysate containing 5 mg/ml proteome was treated with 2 μL of 100× compound stock; endogenous in cells
T8 sequence (Q12899 whole entry, change not shown): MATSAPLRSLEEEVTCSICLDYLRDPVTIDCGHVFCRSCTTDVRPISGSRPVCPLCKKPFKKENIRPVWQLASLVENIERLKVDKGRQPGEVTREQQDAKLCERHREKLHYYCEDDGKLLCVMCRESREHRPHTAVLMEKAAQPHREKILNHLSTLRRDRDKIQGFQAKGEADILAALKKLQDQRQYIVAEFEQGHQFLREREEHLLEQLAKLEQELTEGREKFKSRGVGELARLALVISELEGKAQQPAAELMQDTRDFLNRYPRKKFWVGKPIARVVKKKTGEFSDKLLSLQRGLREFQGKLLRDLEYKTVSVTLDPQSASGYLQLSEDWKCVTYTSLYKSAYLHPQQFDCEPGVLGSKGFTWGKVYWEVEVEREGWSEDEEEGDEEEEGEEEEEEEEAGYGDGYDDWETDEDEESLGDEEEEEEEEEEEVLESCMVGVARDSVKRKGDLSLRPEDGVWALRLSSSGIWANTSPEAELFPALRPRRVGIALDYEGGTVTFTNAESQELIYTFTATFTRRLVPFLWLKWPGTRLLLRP
Text: as §1

[9] = 100 uM, read-out: percent inhibition
[10] = 500 uM, read-out: percent inhibition
[11] = 100 uM, read-out: percent_inhibition
[12] = read-out: KB05_100 uM_percent_inhibition

Compound: COc1ccc2c(c1)CCCN2C(=O)CCl [KB02]
- inhibition at 100 µM ([1]; read-out: KB02_100 uM_percent_inhibition): 23%
- inhibition at 500 µM ([2]; read-out: KB02_500 uM_percent_inhibition): 61%
- inhibition at 100 µM ([3]; 100 uM, read-out: KB02_100 uM_percent_inhibition): 1%
- inhibition at 100 µM [4, 9]: 34%
- inhibition at 500 µM [4, 10]: 77%
- percent_inhibition ([5]; 100 uM): 4%
- inhibition at 100 µM [5, 11]: 8%
- percent_inhibition ([5]; 500 uM): 9%
- inhibition at 500 µM ([5]; 500 uM, read-out: percent_inhibition): 15%

- inhibition at 100 µM ([6]; read-out: percent_inhibition): 52%
- inhibition at 100 µM [1, 12]: 33%
- inhibition at 500 µM ([1]; 500 uM, read-out: KB05_500 uM_percent_inhibition): 36%
- inhibition at 100 µM [7, 9]: 52%
- inhibition at 500 µM [7, 10]: 53%
- inhibition at 100 µM [5, 11]: 7%
- inhibition at 100 µM [8, 12]: 28%
Compound: C=CC(=O)N(c1ccccc1)c1ccc(Br)cc1 [KB05]

Compound: O=C(CCl)Nc1cc(C(F)(F)F)cc(C(F)(F)F)c1 [KBO3]
- percent_inhibition ([6]; 100 uM): 71%
- KB03_500 uM_percent_inhibition ([2]; 500 uM): 51%
- KB03_500 uM_percent_inhibition ([3]; 500 uM): 59%
- percent inhibition ([7]; 100 uM): 71%
- percent inhibition ([7]; 500 uM): 76%
- percent inhibition ([4]; 500 uM): 66%
- KB03_100 uM_percent_inhibition ([8]; 100 uM): 56%
